Legend:
[1] = test system: P. aeruginosa AU0584; test: Killing of P. aeruginosa AU0584 by colistin with Apyrase Agent, CFU count; assay type: cell-based; conditions: colistin at less than 10 μg/ml, with Apyrase Agent 2 U/ml or alone
Experimental: (§1) In this Example (and in subsequent Examples), the colistin is colistin sulfate salt, catalog number C4461 from Sigma-Aldrich (St. Louis, Mo.) and the apyrase is catalog number M0393L from New England BioLabs Inc. (Ipswich, Mass.).
P. aeruginosa AU0584 is grown in the presence of combinations of 0 and 2 U/ml of Apyrase Agent and approximately 0 to 20 μg/ml of colistin. After incubation, the numbers of viable cells are determined by counting the colony forming units (CFU) on the plate (data provided as CFU/ml). Apyrase Agent improves the efficiency of killing P. aeruginosa AU0584 by colistin. Apyrase Agent increases the effectiveness of colistin at less than 10 μg/ml such that less than 10 to 100 CFU/ml are detected relative to greater than 10^3 to 10^4 in the presence of colistin alone at the same concentrations.

[2] = test system: A. baumannii DMCI; test: Mouse burn wound infection model, A. baumannii DMCI, six groups; assay type: in vivo; conditions: C57BL/6 mice, 24 hours after burn, colistin 4 μg/ml, treatment immediately after inoculation
Text: An established mouse wound model is used for these tests. Female pathogen-free C57BL/6 mice (Harlan, Indianapolis, Ind.), 12 weeks old, weighing ˜20-25 grams are used in all experiments. The skin over the lumbrosacral and back region is clipped using a 35-W model 5-55E electrical clipper (Oyster-Golden A-S, Head no. 80, blade size 40) by using the method described by Ipaktchi et al. with slight modification. Two hundred microliters of 0.9% saline suspension of A. baumannii DMCI (I×10^6 cells/ml), which is a highly colistin resistant clinical strain, is used for wound infection experiments. Viable bacterial numbers are determined 24 hours after burn. The Student t-test is used for statistical analysis.
Experiments are carried out in six groups (I) a control group, which contains neither apyrase nor colistin; (2) potato apyrase group, which contains potato apyrase (I U/ml); (3) colistin group, which contains colistin (4 μg/ml); (4) potato apyrase and colistin group, (5) Apyrase Agent group, (6) Apyrase Agent and colistin group.
The treatment is applied immediately after inoculation. After 24 hours, the mice are given lethal IP injections of pentobarbital (150 mg/kg) and skin samples are collected using a scalpel and scissors.

[3] = test system: Burkholderia ambifaria AU5203; test: Killing of Burkholderia ambifaria AU5203 by colistin with Apyrase Agent, CFU count; assay type: cell-based; conditions: colistin at less than 20 μg/ml, with Apyrase Agent 2 U/ml or alone
Experimental: as §1
(§2) Burkholderia ambifaria AU5203 is grown in the presence of combinations of 0 and 2 U/ml of Apyrase Agent and approximately 0 to 20 μg/ml of colistin. After incubation, the numbers of viable cells are determined by counting the colony forming units (CFU) on the plate (data provided as CFU/ml). Apyrase Agent improves the efficiency of killing Burkholderia ambifaria AU5203 by colistin. Apyrase Agent increases the effectiveness of colistin at less than 20 μg/ml such that less than 10 to 100 CFU/ml are detected relative to greater than 10^5 to 10^6 in the presence of colistin alone at the same concentrations.

[4] = test system: Burkholderia dolosa AU0589; test: Killing of Burkholderia dolosa AU0589 by colistin with Apyrase Agent, CFU count; assay type: cell-based; conditions: colistin at less than 20 μg/ml, with Apyrase Agent 2 U/ml or alone
Experimental: as §1
as §2, with “dolosa AU0589” for “ambifaria AU5203”, “10^6” for “10^5”, “10^7” for “10^6”

[5] = test system: Burkholderia vietnamiensis AU 10214; test: Killing of Burkholderia vietnamiensis AU 10214 by colistin with Apyrase Agent, CFU count; assay type: cell-based; conditions: colistin at less than 20 μg/ml, with Apyrase Agent 2 U/ml or alone
Experimental: as §1
as §2, with “vietnamiensis AU 10214” for “ambifaria AU5203”

[6] = test system: A. baumannii ATCC DMCI; test: Mouse model for wound infection and healing (burn), A. baumannii ATCC DMCI, treatment 24 hours after inoculation; assay type: in vivo; conditions: wounds treated 24 hours after inoculation, skin collected 48 hours after the burn
Experimental: e.g., in a mouse model for wound infection and healing. After a burn, A. baumannii ATCC DMCI is inoculated on skin. After 24 hours, the wounds are treated with Apyrase Agent alone, colistin alone, or Apyrase Agent and colistin in combination. Skin samples are collected after another 24 hours and the CFU/g skin of A baumannii ATCC DMCI is determined. […] In the presence of Apyrase Agent or colistin alone, A. baumannii is detected at amounts of approximately 10^8 CFU/g of skin.

[7] = test system: E. coli strain K12; test: Effect of colistin, Apyrase Agent and combinations on E. coli growth curve; assay type: cell-based
Experimental: The effect of colistin, Apyrase agent, and combinations thereof were examined on E. coli growth.
E. coli strain K12 was cultivated to a concentration of about 0.1 OD (A600 nm).
The effect of colistin on E. coli growth. Replicate cultures were cultivated in the presence of colistin (at a concentration of 0.25 μg/ml) and various amounts of additional Apyrase Agent buffer (Tris-biffered saline; 1, 3, 10, or 30 μL).
The effect of Apyrase Agent on E. coli growth. Replicate cultures were cultivated in the presence of Apyrase Agent at various concentrations (i.e. 1, 3, 10, or 30 U/ml).
The effect of a combination of colistin and Apyrase Agent on E. coli growth. Replicate cultures were cultivated in the presence of colistin (at a concentration of […]) combined with Apyrase Agent at various concentrations (namely 1, 3, 10, or 30 U/ml).

[8] = test system: A. baumannii strain DMCI; test: Killing of A. baumannii DMCI by colistin with Apyrase Agent, CFU count; assay type: cell-based; conditions: about 10^6 CFU/ml inoculum; Apyrase Agent 1 and 2 U/ml with colistin, or colistin alone at the same concentrations (4-32 μg/ml)
Experimental: as §1
Approximately 10^6 CFU/ml of A. baumannii strain DMCI is grown on solid medium culture plates in the presence of combinations of 0, 1, and 2 U/ml of Apyrase Agent and 0, 4, 8, 16, and 32 μg/ml of colistin. After incubation, the numbers of viable cells are determined by counting the colony forming units (CFU) on the plate (data provided as CFU/ml).

What does the source list for colistin sulfate salt?
numbers of viable cells (CFU) [1]: 10^3 to 10^4 CFU/ml; viable bacteria number recovered from burn sites [2]: highest viable bacteria number; numbers of viable cells (CFU) [3]: 10^5 to 10^6 CFU/ml; numbers of viable cells (CFU) [4]: 10^6 to 10^7 CFU/ml; numbers of viable cells (CFU) [5]: 10^5 to 10^6 CFU/ml; A. baumannii detected on skin [6]: approximately 10^8 CFU/g of skin; effect on E coli growth ([7]; colistin 0.25 μg/ml plus Apyrase Agent buffer 1, 3, 10, or 30 μL, 24 hour period, FIG. 1): no effect; effect on E. coli growth ([7]; colistin 0.25 mg/ml alone or combined with Apyrase Agent 1, 3, 10, or 30 U/ml, FIG. 3): negligible effect; viable cell count [8]: approximately 10^7 CFU/ml
